Experiment [1] has as its system SW620 human colorectal cancer cells. Put plainly: MTT based cell viability assay: potentiation of the growth inhibiting activity of MMS. Conditions: Homo sapiens, SW-620, 120 h, read-out: IC50 (nM), potentiation of the growth inhibiting activity of MMS, SW620 cells, 1.7 μg/ml MMS, 5 days (120 hours), MTT.
Experiment [2] concerns Human breast cancer cell line T47D. Description: Cell based caspase-3 activity assay: potentiation of MMS induced apoptosis. Conditions: Homo sapiens, T47D, 24 h, T47D cells, 11.1 μg/ml MMS, 24 hours, intracellular caspase-3 activity; read-out: EC50 (nM), potentiation of the apoptosis inducing activity of MMS. The gist of the method: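 T47D cells were exposed for 24 h to compound plus a minimally apoptotic MMS dose (medium containing 11.1 μg/ml MMS). Lysates were incubated 3 h at 37 °C with (Ac-DEVD)2-R110 caspase-3 substrate (20 μM in added buffer) and read at ex 496/em 520 nm. EC50 came from a sigmoidal fit of RFU versus log concentration.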

Experiment [3] relates to BRCA-2 deficient CAPAN-1 human pancreatic cancer cells. Description: MTT based cell viability assay: growth inhibition of BRCA-2 deficient CAPAN-1 cells. Conditions: 240 h, compound alone, 10 day assay. The source says: Determination of the cell growth inhibiting activity of 1-(3-(4-(pyrimidin-2-yl)piperazine-1-carbonyl)benzyl)quinazoline-2,4(1H,3H)-dione and analogs on BRCA-2 deficient CAPAN-1 pancreatic duck cancer cells using a MTT based cell viability assay
BRCA-deficient cancer cells are sensitive to PARP inhibition. In the presence of PARP inhibitors, BRCA-deficient cancer cells could not grow and eventually will lead to death of cells. BRCA-2 deficient CAPAN-1 human pancreatic cancer cells were used to test the growth inhibiting activity of substituted 1-(arylmethyl)quinazoline-2,4(1H,3H)-diones. Briefly, CAPAN-1 cells are grown and maintained in IMEM medium supplemented with 20% FBS. The assay takes 10 days to finish. On day 1, 6000 CAPAN-1 cells are seeded to each well of a 96-well plate. The cells are incubated at 37° C. in a cell culture incubator overnight. In the next day, serial dilutions of compounds to be tested and reference compound (AZD2281) were prepared with a 1:3 and 1:10 fashion in DMSO. Ten-fold compound solutions were made by mixing 10 μl DMSO serial dilution solutions with 90 μl fresh growth medium. The cell culture medium was removed and 180 μl fresh media with FBS and 20 μl of compound solutions were added to each well. The final concentration of DMSO was 1%. Cells were then returned to the CO2 cell culture incubator and incubated at 37° C. for two days (day 3 and day 4). On day 5, the same procedure as what was done on day 2 was repeated. Cell culture medium was removed and fresh medium containing serial dilutions of compounds or reference compounds were added. Cells were returned to the CO2 cell culture incubator and incubated for two more days. On day 8, same procedure was repeated again and fresh medium containing the testing compounds or reference compounds were added and incubated for an additional 2 days. On day 10, 20 μl of MTT reagent (5 mg/ml) was added to each well of the cell culture plate and incubated for 4 h. The cell culture media was removed and 100 μl DMSO was added to each well. The 96-well cell culture plates were shaked horizontally for 10 min and readed in a Varioskan Flash plate reader (Thermo Fisher Scientific) at 520 and 690 nm. The obtained 520 nm absorbance readings subtracting corresponding 690 nm reading were analyzed using a commercial graphic software (GraphPad Prism 5) and plotted against the Log scale of the compound concentrations.

This passage reports IC50 and EC50 results from US9926304B2, “1-(arylmethyl)quinazoline-2,4(1H,3H)-diones as PARP inhibitors and the use thereof” (Impact Therapeutics, Inc., priority 2011, dated 2018).

For orientation: EC50 means the concentration at which the effect is half-maximal.

As to `O=C(c1ccc(Br)cc1)N1CCN(C(=O)c2cccc(Cn3c(=O)[nH]c(=O)c4ccccc43)c2)CC1` [Example 11, 1-(3-(4-(4-Bromobenzoyl)piperazine-1-carbonyl)benzyl)quinazoline-2,4(1H,3H)-dione], the IC50 in experiment [1] worked out at 618 nM; in experiment [3], 1840 nM. Moreover, in experiment [2], the half-maximal effective concentration (EC50) was 214 nM.
On to `O=C(c1cccc(Cn2c(=O)[nH]c(=O)c3ccccc32)c1)N1CCN(C(=O)C2CC2)CC1` [Example 15, 1-(3-(4-(Cyclopropylcarbonyl)piperazine-1-carbonyl)benzyl)quinazoline-2,4(1H,3H)-dione], for which the IC50 was 666 nM in experiment [1] and greater than 10000 nM in experiment [3]. Further, the EC50 in experiment [2] was found to be 803 nM.
For `O=C(c1cccc(Cn2c(=O)[nH]c(=O)c3ccccc32)c1)N1CCN(c2cnccn2)CC1` [Example 20, 1-(3-(4-(Pyrazin-2-yl)piperazine-1-carbonyl)benzyl)quinazoline-2,4(1H,3H)-dione] the same measures were 391 nM, 4940 nM and 139 nM.
For `O=C(c1cc(Cn2c(=O)[nH]c(=O)c3ccccc32)ccc1F)N1CCN(C(=O)C2CCCC2)CC1` [Example 23, 1-(3-(4-(Cyclopentylcarbonyl)piperazine-1-carbonyl)-4-fluorobenzyl)quinazoline-2,4(1H,3H)-dione] the same measures were 8.2 nM, 160 nM and 4 nM.
In the same order, the values of `O=C(c1cc(Cn2c(=O)[nH]c(=O)c3ccccc32)ccc1F)N1CCN(c2ccccn2)CC1` [Example 24, 1-(4-Fluoro-3-(4-(pyridin-2-yl)piperazine-1-carbonyl)benzyl)quinazoline-2,4(1H,3H)-dione] are 26 nM, 735 nM and 20 nM.
For the molecule `O=C(c1cccc(Cn2c(=O)[nH]c(=O)c3ccccc32)c1)N1CCN(C(=O)C2CCCCC2)CC1` [Example 26, 1-(3-(4-(Cyclohexylcarbonyl)piperazine-1-carbonyl)benzyl)quinazoline-2,4(1H,3H)-dione], the values for the IC50 in experiment [1] and in experiment [3] were 149 nM and 400 nM, respectively. The EC50 in experiment [2] was 20 nM.
For the molecule `O=C(c1cccc(Cn2c(=O)[nH]c(=O)c3ccccc32)c1)N1CCN(c2nsc3ccccc23)CC1` [Example 27, 1-(3-(4-(Benzo[d]isothiazol-3-yl)piperazine-1-carbonyl)benzyl)quinazoline-2,4(1H,3H)-dione], the IC50 in experiment [1] is 83 nM; in experiment [3], 281 nM. In experiment [2], the concentration giving a half-maximal response (EC50) is 51 nM.
In the same order, the values of `O=C(c1cccc(Cn2c(=O)[nH]c(=O)c3ccccc32)c1)N1CCN(C(=O)C2CCC2)CC1` [Example 30, 1-(3-(4-(Cyclobutylcarbonyl)piperazine-1-carbonyl)benzyl)quinazoline-2,4(1H,3H)-dione] are 119 nM, 1780 nM and 39 nM.
For `O=C(c1cc(Cn2c(=O)[nH]c(=O)c3ccccc32)ccc1F)N1CCN(C(=O)C2CC2)CC1` [Example 40, 1-(3-(4-(Cyclopropylcarbonyl)piperazine-1-carbonyl)-4-fluorobenzyl)quinazoline-2,4(1H,3H)-dione] the same measures were 182 nM, 1740 nM and 29 nM.
For `O=C(c1cc(Cn2c(=O)[nH]c(=O)c3ccccc32)ccc1F)N1CCN(C(=O)C2CCCCC2)CC1` [Example 41, 1-(3-(4-(Cyclohexylcarbonyl)piperazine-1-carbonyl)-4-fluorobenzyl)quinazoline-2,4(1H,3H)-dione] the same measures were 11 nM, 208 nM and 2.2 nM.
On to `O=C(c1cc(Cn2c(=O)[nH]c(=O)c3ccccc32)ccc1F)N1CCN(c2cnccn2)CC1` [Example 42, 1-(4-Fluoro-3-(4-(pyrazin-2-yl)piperazine-1-carbonyl)benzyl)quinazoline-2,4(1H,3H)-dione], for which the IC50 came to 78 nM in experiment [1] and 2540 nM in experiment [3]. Also, the EC50 in experiment [2] was found to be 11 nM.
For `O=C(c1cc(Cn2c(=O)[nH]c(=O)c3ccccc32)ccc1F)N1CCN(c2nsc3ccccc23)CC1` [Example 43, 1-(3-(4-(Benzo[d]isothiazol-3-yl)piperazine-1-carbonyl)-4-fluorobenzyl)quinazoline-2,4(1H,3H)-dione] the same measures were 51 nM, 974 nM and 18 nM.
Turning to `O=C(c1ccccc1)N1CCN(C(=O)c2cc(Cn3c(=O)[nH]c(=O)c4ccccc43)ccc2F)CC1` [Example 45, 1-(3-(4-Benzoylpiperazine-1-carbonyl)-4-fluorobenzyl)quinazoline-2,4(1H,3H)-dione], the figures for the IC50 in experiment [1] and in experiment [3] were 34 nM and 668 nM, respectively. Moreover, in experiment [2], the EC50 came out at 11 nM.
In the same order, the values of `O=C(c1cccs1)N1CCN(C(=O)c2cc(Cn3c(=O)[nH]c(=O)c4ccccc43)ccc2F)CC1` [Example 46, 1-(4-Fluoro-3-(4-(thiophene-2-carbonyl)piperazine-1-carbonyl)benzyl)quinazoline-2,4(1H,3H)-dione] are 21 nM, 446 nM and 6.6 nM.
In the same order, the values of `O=C(c1ccc(F)c(Cn2c(=O)[nH]c(=O)c3ccccc32)c1)N1CCN(C(=O)C2CCCC2)CC1` [Example 48, 1-(3-(4-(Cyclopentylcarbonyl)piperazine-1-carbonyl)-6-fluorobenzyl)quinazoline-2,4(1H,3H)-dione] are 56 nM, 168 nM and 8.2 nM.
In the same order, the values of `O=C(c1ccc(F)c(Cn2c(=O)[nH]c(=O)c3ccccc32)c1)N1CCN(C(=O)C2CCCCC2)CC1` [Example 49, 1-(3-(4-(Cyclohexylcarbonyl)piperazine-1-carbonyl)-6-fluorobenzyl)quinazoline-2,4(1H,3H)-dione] are 32 nM, 421 nM and 10 nM.
In the case of `O=C(c1ccc(F)c(Cn2c(=O)[nH]c(=O)c3ccccc32)c1)N1CCN(c2ncccn2)CC1` [Example 50, 1-(6-Fluoro-3-(4-(pyrimidin-2-yl)piperazine-1-carbonyl)benzyl)quinazoline-2,4(1H,3H)-dione], the IC50 in experiment [1] stood at 37 nM; in experiment [3], 173 nM. For the same molecule, the EC50 in experiment [2] stood at 13 nM.
For `O=C(c1cc(Cn2c(=O)[nH]c(=O)c3cc(F)ccc32)ccc1F)N1CCN(c2nccs2)CC1` [Example 188, 6-Fluoro-1-(4-fluoro-3-(4-(thiazol-2-yl)piperazine-1-carbonyl)benzyl)quinazoline-2,4(1H,3H)-dione], the IC50 in experiment [1] worked out at 7.8 nM; in experiment [3], 472 nM.
In the same order, the values of `O=C(c1cc(Cn2c(=O)[nH]c(=O)c3ccccc32)ccc1F)N1CCN(c2nccs2)CC1` [Example 190, 1-(4-Fluoro-3-(4-(thiazol-2-yl)piperazine-1-carbonyl)benzyl)quinazoline-2,4(1H,3H)-dione] are 21 nM and 1380 nM.
For `O=C(c1cccc(Cn2c(=O)[nH]c(=O)c3cccc(O)c32)c1)N1CCN(c2ncccn2)CC1` [Example 230, 8-Hydroxy-1-(3-(4-(pyrimidin-2-yl)piperazine-1-carbonyl)benzyl)quinazoline-2,4(1H,3H)-dione], the IC50 in experiment [1] came out at 2.6 nM. Also, the concentration for a half-maximal effect (EC50) in experiment [2] came to 3.2 nM.
